Results reported in article PMC5601486, “Identification of 4-phenylquinolin-2(1H)-one as a specific allosteric inhibitor of Akt” (Scientific Reports, 2017).

What was measured:
KIT(V559D,V654A) = assay: KINOMEscan; conditions: 50000 nM
Method: KINOMEscan™ selectivity screen
(§1) The assay was perfor med at DiscoveRx Corporation according the methods published previously5. Briefly, Kinase-tagged T7 phage strains were grown in parallel in an E. coli host derived from the BL21 strain. E. coli were grown to log-phase and infected with T7 phage from a frozen stock and incubated with shaking at 32°C until lysis (90-150 minutes). The kinases were produced in HEK-293 cells and subsequently tagged with DNA for qPCR detection. Streptavidin-coated magnetic beads were treated with biotinylated small molecule ligands to generate affinity resins for kinase
(§2) inhibitor or DMSO control was performed in polypropylene 384-well plates for 1 hr at room temperature. After wash with PBS buffer containing 0.05% Tween 20, the beads were incubated in elution buffer (PBS containing 0.05 % Tween 20 and 0.5 μM non-biotinylated affinity ligand) for 30 minutes at room temperature. The kinase concentration in the eluates was measured by qPCR.

BRAF = assay: KINOMEscan; conditions: 50000 nM
Method: KINOMEscan™ selectivity screen
as §1, §2

[1] = test system: ABL1(Q252H)-phosphorylated; assay: KINOMEscan; conditions: 50000 nM
Method: KINOMEscan™ selectivity screen
as §1, §2

PRKD3 = assay: KINOMEscan; conditions: 50000 nM
Method: KINOMEscan™ selectivity screen
as §1, §2

CAMK1G = assay: KINOMEscan; conditions: 50000 nM
Method: KINOMEscan™ selectivity screen
(§3) Briefly, Kinase-tagged T7 phage strains were grown in parallel in an E. coli host derived from the BL21 strain. E. coli were grown to log-phase and infected with T7 phage from a frozen stock and incubated with shaking at 32°C until lysis (90-150 minutes). The kinases were produced in HEK-293 cells and subsequently tagged with DNA for qPCR detection. Streptavidin-coated magnetic beads were treated with biotinylated small molecule ligands to generate affinity resins for kinase
as §2

FLT3(ITD,D835V) = assay: KINOMEscan; conditions: 50000 nM
Method: KINOMEscan™ selectivity screen
as §1, §2

S6K1 = assay: KINOMEscan; conditions: 50000 nM
Method: KINOMEscan™ selectivity screen
as §1, §2

PIK3CG = assay: KINOMEscan; conditions: 50000 nM
Method: KINOMEscan™ selectivity screen
as §3, §2

CLK3 = assay: KINOMEscan; conditions: 50000 nM
Method: KINOMEscan™ selectivity screen
as §3, §2

YANK2 = assay: KINOMEscan; conditions: 50000 nM
Method: KINOMEscan™ selectivity screen
as §3, §2

[2] = test system: TYK2(JH1domain-catalytic); assay: KINOMEscan; conditions: 50000 nM
Method: KINOMEscan™ selectivity screen
as §1, §2

[3] = test system: JAK1(JH1domain-catalytic); assay: KINOMEscan; conditions: 50000 nM
Method: KINOMEscan™ selectivity screen
as §1, §2

MINK = assay: KINOMEscan; conditions: 50000 nM
Method: KINOMEscan™ selectivity screen
as §1, §2

CDKL5 = assay: KINOMEscan; conditions: 50000 nM
Method: KINOMEscan™ selectivity screen
as §3, §2

EPHA6 = assay: KINOMEscan; conditions: 50000 nM
Method: KINOMEscan™ selectivity screen
as §3, §2

PRKCI = assay: KINOMEscan; conditions: 50000 nM
Method: KINOMEscan™ selectivity screen
as §1, §2

[4] = test system: ABL1(F317L)-nonphosphorylated; assay: KINOMEscan; conditions: 50000 nM
Method: KINOMEscan™ selectivity screen
as §1, §2

CDK7 = assay: KINOMEscan; conditions: 50000 nM
Method: KINOMEscan™ selectivity screen
as §1, §2

SGK1 = assay: Western blot of SGK1 S422 phosphorylation; assay type: cell-based, Mouse; conditions: all concentrations tested including 80 µM
Method: Neuro 2A cells were seeded in 12-well plates in DMEM containing 5% FBS for 24 hr.
After overnight serum starvation (in 0% FBS DMEM), cells were incubated for 30 min at 37 °C with G7 or LY294002 or Torin 1 (Sigma Aldrich) at various concentrations, or DMSO control. IGF-1 was added to each well at a final concentration of 100 ng/mL. After 30-min incubation cells were washed with cold PBS and lysed with 50 µL lysis buffer containing 1% Triton X-100 and protease/phosphatase inhibitors (Cell Signaling Technology) or RIPA buffer (Santa Cruz Biotech). Samples were electrophoresed in 4–12% Bis-Tris gels (Life Technologies) at 150 V using MOPS SDS running buffer. Proteins were transferred electrophoretically to a PVDF or nitrocellulose membrane. For detection of cleaved […]
caspase 3 a Trans-Blot Turbo Transfer System (Bio-Rad, 25 V for 25 min) with PVDF membrane were used. […]
anti- GAPDH (14C10) antibody (#2118) (all antibodies were from Cell Signaling Technology unless indicated, 1:1000 dilution was used) at 4°C overnight, washed three times with TBS-T, then incubated with peroxidase-conjugated secondary antibody (Sigma-Aldrich) for 1 hr at room temperature. […] Band intensity was quantitated using Kodak 1D imaging analysis software. […]

PIK3CA(H1047L) = assay: KINOMEscan; conditions: 50000 nM
Method: KINOMEscan™ selectivity screen
as §1, §2

AAK1 = assay: KINOMEscan; conditions: 50000 nM
Method: KINOMEscan™ selectivity screen
as §1, §2

DYRK2 = assay: KINOMEscan; conditions: 50000 nM
Method: KINOMEscan™ selectivity screen
as §1, §2

[5] = test system: RSK4(Kin.Dom.1-N-terminal); assay: KINOMEscan; conditions: 50000 nM
Method: KINOMEscan™ selectivity screen
as §1, §2

EPHA4 = assay: KINOMEscan; conditions: 50000 nM
Method: KINOMEscan™ selectivity screen
as §3, §2

PAK2 = assay: KINOMEscan; conditions: 50000 nM
Method: KINOMEscan™ selectivity screen
as §1, §2

WNK2 = assay: KINOMEscan; conditions: 50000 nM
Method: KINOMEscan™ selectivity screen
The assay was perfor med at DiscoveRx Corporation according the methods published previously5. […] The kinases were produced in HEK-293 cells and subsequently tagged with DNA for qPCR detection. Streptavidin-coated magnetic beads were treated with biotinylated small molecule ligands to generate affinity resins for kinase
as §2

ARK5 = assay: KINOMEscan; conditions: 50000 nM
Method: KINOMEscan™ selectivity screen
as §3, §2

PKNB(M.tuberculosis) = test system: T1, PKNB(M.tuberculosis); assay: KINOMEscan; assay type: binding; conditions: 50000 nM
T1 construct: purchased DiscoveRx KINOMEscan

EPHA1 = assay: KINOMEscan; conditions: 50000 nM
Method: KINOMEscan™ selectivity screen
as §1, §2

STK33 = assay: KINOMEscan; conditions: 50000 nM
Method: KINOMEscan™ selectivity screen
as §1, §2

WNK4 = assay: KINOMEscan; conditions: 50000 nM
Method: as §3, §2

FLT3-autoinhibited = assay: KINOMEscan; conditions: 50000 nM
Method: KINOMEscan™ selectivity screen
as §1, §2

HIPK3 = assay: KINOMEscan; conditions: 50000 nM
Method: KINOMEscan™ selectivity screen
as §3, §2

FYN = assay: KINOMEscan; conditions: 50000 nM
Method: KINOMEscan™ selectivity screen
as §1, §2

EPHB6 = assay: KINOMEscan; conditions: 50000 nM
Method: KINOMEscan™ selectivity screen
as §1, §2

BUB1 = assay: KINOMEscan; conditions: 50000 nM
Method: KINOMEscan™ selectivity screen
as §1, §2

TNIK = assay: KINOMEscan; conditions: 50000 nM
Method: KINOMEscan™ selectivity screen
as §3, §2

RIPK2 = assay: KINOMEscan; conditions: 50000 nM
Method: KINOMEscan™ selectivity screen
as §1, §2

For `Oc1cc(-c2ccccc2)c2ccccc2n1` [G7, 4-phenylquinolin-2(1H)-one], the “Percent Control” value (KIT(V559D,V654A)) was 48%, the “Percent Control” value (BRAF) was 84% and the “Percent Control” value [1] was 33%. The “Percent Control” value (PRKD3) was 89%, the “Percent Control” value (CAMK1G) was 77% and the “Percent Control” value (FLT3(ITD,D835V)) was 34%. For the same compound, the “Percent Control” value (S6K1) was 96%, the “Percent Control” value (PIK3CG) was 94% and the “Percent Control” value (CLK3) was 92%. For the same compound, the “Percent Control” value (YANK2) was 100%, the “Percent Control” value [2] was 72% and the “Percent Control” value [3] was 82%. For the same compound, the “Percent Control” value (MINK) was 77%, the “Percent Control” value (CDKL5) was 100% and the “Percent Control” value (EPHA6) was 88%. For the same compound, the “Percent Control” value (PRKCI) was 98%, the “Percent Control” value [4] was 94% and the “Percent Control” value (CDK7) was 84%. The “S422 phosphorylation of SGK1” value (SGK1) was “did not inhibit”, the “Percent Control” value (PIK3CA(H1047L)) was 89% and the “Percent Control” value (AAK1) was 62%. The “Percent Control” value (DYRK2) was 72%, the “Percent Control” value [5] was 34% and the “Percent Control” value (EPHA4) was 93%. The “Percent Control” value (PAK2) was 68%, the “Percent Control” value (WNK2) was 84% and the “Percent Control” value (ARK5) was 59%. The “Percent Control” value (PKNB(M.tuberculosis)) was 43%, the “Percent Control” value (EPHA1) was 89% and the “Percent Control” value (STK33) was 100%. The “Percent Control” value (WNK4) was 88%, the “Percent Control” value (FLT3-autoinhibited) was 54% and the “Percent Control” value (HIPK3) was 65%. For the same compound, the “Percent Control” value (FYN) was 89%, the “Percent Control” value (EPHB6) was 14% and the “Percent Control” value (BUB1) was 85%. For the same compound, the “Percent Control” value (TNIK) was 60% and the “Percent Control” value (RIPK2) was 82%.
